Assay results from patent publication US8497074B2, “Granin proteins as markers of heart disease” (Universitetet I Oslo, priority 2008, dated 2013).
Entries after “also recorded” stand apart in the source; their conditions may differ.

What was measured:
Assay type in all cases: cell-based
[1] = system: neonatal rat cardiomyocytes; assay: SgII gene expression in isolated neonatal cardiomyocytes after stimulation with signaling agents (qRT-PCR); settings: stimulated for 24 hours, vs. PBS stimulated cells
Procedure: (§1) Neonatal rat cardiomyocytes were isolated from neonatal (1-3 days) Wistar rats (Taconic, Skensved, Denmark) as previously reported. After 24 hours starvation, the cardiomyocytes were stimulated for 24 hours with the following agents; Forskolin [1 and 10 μM], norepinephrine [100 μM], endothelin [77 ng/ml] and angiotensin II [1 μM] (all Sigma, Europe), tumor necrosis factor-α(TNF-α) [10 ng/ml] (BioSource International Camarillo, Calif., USA), interleukin-1β (IL-1β) [10 ng/ml], monocyte chemoattractant protein-1 (MCP-1) [200 ng/ml], transforming growth factor-β (TGF-β) [10 ng/ml] (all R&D Systems, Minneapolis, Minn., USA), and a C-terminal CgB peptide—CgB312-323 and secretoneurin [1, 10 and 100 ng/ml] (053-20, 047-95, Phoenix Pharmaceuticals, Burlingame, Calif., USA).
(§2) Total RNA was isolated from neonatal rat cardiomyocytes according to the protocol (RNeasy mini kit, Qiagen, Valencia, Calif., USA). Along with lysis buffer, the Mixer Mill 300 System (RETSCH, Haan, Germany) and stainless steel beads (Qiagen, Hilden, Germany) were used for mechanical disruption of the cells. RNA concentrations and quality were assessed as earlier described with the NanoDrop system and an Agilent BioAnalyzer 2100. Reverse transcription reactions were performed with iScript Select cDNA Synthesis Kit (Bio-Rad Laboratories, Inc., Hercules, Calif., USA). Gene expression was determined by qRT-PCR with pre-made TaqMan Gene Expression Assays from Applied Biosystems: SgII (Rn01400686—1), CgB (Rn01514853—1), BNP (Rn00580641—1), Rp14 (Rn00821091—1). Gene expression in stimulated cells is presented as change vs. gene expression in PBS stimulated cells (normalized vs. control). All samples were run in triplicate and Rp14 gene expression was used as an internal control.

[2] = system: neonatal rat cardiomyocytes; assay: CgB gene expression in isolated neonatal cardiomyocytes after stimulation with signaling agents (qRT-PCR)
Procedure: as §1, with “factor-α (TNF-α)” for “factor-α(TNF-α)”, “peptide—CgB312-323” for “peptide—CgB312-323 and secretoneurin”, “(053-20,” for “(053-20, 047-95,”
as §2, with “Biosystems:” for “Biosystems: SgII (Rn01400686—1),”
as §1, §2

[3] = system: neonatal rat cardiomyocytes; assay: BNP gene expression in isolated neonatal cardiomyocytes after stimulation with signaling agents (qRT-PCR); settings: stimulated for 24 hours, vs. PBS stimulated cells
Procedure: as §1, with “factor-α (TNF-α)” for “factor-α(TNF-α)”, “peptide—CgB312-323” for “peptide—CgB312-323 and secretoneurin”, “(053-20,” for “(053-20, 047-95,”
as §2, with “Biosystems:” for “Biosystems: SgII (Rn01400686—1),”
as §1, §2

[4] = neonatal rat cardiomyocytes, stimulated for 24 hours, vs. PBS stimulated cells

| Compound | SgII gene expression increase [1] | change in SgII gene expression (in words) [1] | change in BNP gene expression (in words) [3] | change in CgB gene expression (in words) [2, 4] | also measured |
| --- | --- | --- | --- | --- | --- |
| C=C[C@@]1(C)CC(=O)[C@]2(O)[C@@]3(C)[C@@H](O)CCC(C)(C)[C@@H]3[C@H](O)[C@H](OC(C)=O)[C@@]2(C)O1 [Forskolin] | 40% |  |  |  | CgB production (gene expression) increase [2, 4]: 60% |
| CC[C@H](C)[C@H](NC(=O)[C@H](CC(=O)O)NC(=O)[C@H](CC(C)C)NC(=O)[C@H](Cc1c[nH]cn1)NC(=O)[C@@H]1CSSC[C@H](N)C(=O)N[C@@H](CO)C(=O)N[C@H]2CSSC[C@H](NC(=O)[C@H](CCC(=O)O)NC(=O)[C@H](CCCCN)NC(=O)[C@H](CC(=O)O)NC(=O)[C@H](CCSC)NC(=O)[C@H](CC(C)C)NC(=O)[C@H](CO)NC(=O)[C@H](CO)NC2=O)C(=O)N[C@@H](C(C)C)C(=O)N[C@@H](Cc2ccc(O)cc2)C(=O)N[C@@H](Cc2ccccc2)C(=O)N1)C(=O)N[C@H](C(=O)N[C@@H](Cc1c[nH]c2ccccc12)C(=O)O)[C@@H](C)CC [endothelin] |  | no significant change | increased | no significant change |  |
| NC[C@H](O)c1ccc(O)c(O)c1 [norepinephrine] | 55% |  |  |  | change in SgII gene expression (in words) ([1]; listed as NA): potent agents for upregulating; also recorded: increased; change in BNP gene expression (in words) ([3]; listed as NA): increased; also recorded: most powerful stimulus; also recorded: potent agents for upregulating; CgB gene expression, times upregulated ([2]; isolated cardiomyocytes, change vs. PBS stimulated cells (FIG. 8A)): 3 ×; CgB gene expression, fold increase ([2]; neonatal rat cardiomyocytes, stimulated for 24 hours, change vs. PBS stimulated cells): 3 fold; change in CgB gene expression (in words) ([2]; neonatal rat cardiomyocytes, stimulated for 24 hours, vs. PBS stimulated cells, listed as NA): upregulated; also recorded: potent agents for upregulating |
| angiotensin II (DRVYIHPF; Angiotensin-2; UniProt P01019 25-32, looked up) |  | no significant change | increased | significantly upregulated | change in CgB gene expression (in words) ([2]; neonatal rat cardiomyocytes, stimulated for 24 hours, vs. PBS stimulated cells, listed as AT II): upregulated; change in CgB gene expression (in words) ([2]; neonatal rat cardiomyocytes, stimulated for 24 hours, vs. PBS stimulated cells, listed as Angiotensin II): significantly upregulated |
| interleukin-1β |  | no significant change |  | no significant change |  |
| monocyte chemoattractant protein-1 |  | no significant change |  | significantly upregulated | change in CgB gene expression (in words) ([2]; neonatal rat cardiomyocytes, stimulated for 24 hours, vs. PBS stimulated cells, listed as MCP-1): upregulated |
| secretoneurin: 33 amino acid peptide fragment of SgII, 047-95, Phoenix Pharmaceuticals (TNEIVEEQYTPQSLATLESVFQELGKLTGPNNQ; Secretoneurin; UniProt P13521 182-214, looked up) |  | did not affect | did not affect | did not affect | change in SgII gene expression (in words) ([1]; listed as SgII): no significant change |
| transforming growth factor-β | 85% |  |  | significantly upregulated | change in SgII gene expression (in words) ([1]; listed as TGF-β): potent agents for upregulating; also recorded: increased; change in BNP gene expression (in words) ([3]; listed as TGF-β): increased; also recorded: potent agents for upregulating; change in CgB gene expression (in words) ([2]; neonatal rat cardiomyocytes, stimulated for 24 hours, vs. PBS stimulated cells, listed as TGF-β): upregulated; also recorded: potent agents for upregulating |
| tumor necrosis factor-α |  | no significant change |  | no significant change |  |
